Reference: patent US20060127324A1, “Chewable oral compositions containing an anti-microbial agent and methods of formulating the compositions to have acceptable germ kill properties and taste” (Cadbury Adams USA LLC, priority 2004, published 2006)
Values after ≈ are worked out from the molar mass of the structure shown.

Columns and labels:
[1] = Release of anti-microbial agent from chewing gum composition after 10 minutes of chewing; assay type: physicochemical; details: for Q factor (100/percentage released): chewing gum composition; for Release Rate (%) After 10 Minutes of Chewing: chewing gum compositions
Procedure: The germ kill potential (P) therefore is determined by the product of the concentration of at least one anti-microbial agent contained in the composition and the germ kill rating of each anti-microbial agent. The result is in turn multiplied by the mass of the composition and a factor Q as defined previously which is a measure of how easily the anti-microbial agent is released from the oral composition into the oral cavity. The Q factor may be readily determined for a given oral composition by comparing the amount of the anti-microbial agent present in the oral composition before placement in the oral cavity and how much remains after placement in the oral cavity for a fixed period of time. For other compositions such as chewing gum compositions, the release rate of the anti-microbial agent is much slower. Typically only a portion of the anti-microbial agent is released instantaneously and/or on initial chewing. For example, the release rate of anti-microbial agents after 10 minutes of chewing can be as low as less than 10%. […] Thus, the factor Q is 11.1 (100%/9%). The targeted (P) value selected for the chewing gum composition would therefore have to be about 11.1 times greater than the (P) value for the corresponding pressed mint composition.

[2] = tested on: microorganisms found in the oral cavity; experiment: Germ kill rating (R), ratio of ATC and MIC; details: mint lozenge having a weight of 1.5 grams
Source text: The germ kill rating (R) is therefore a quantitative indication of the range of concentrations of the anti-microbial agent (i.e. effective concentration range) that may be employed to achieve both the desirable germ kill properties and acceptable taste. By way of example, an anti-microbial agent having a germ kill rating of 10 has an effective concentration range twice as large as an anti-microbial agent having a germ kill rating of 5. The germ kill rating (R) of each anti-microbial agent used in the oral composition is the ratio of the maximum acceptable taste concentration (ATC) of the anti-microbial agent and the minimum inhibitory concentration (MIC). The germ kill rating (R) is therefore a value representative of the suitability of a particular anti-microbial agent to provide a balance between acceptable taste and germ killing efficacy. A relatively high (R) value is indicative of an anti-microbial agent that can be used in a relatively large range of concentrations without adversely effecting taste while still obtaining the desired germ kill properties. […] The maximum acceptable taste concentration (ATC) of an anti-microbial agent can be determined through known population sampling methods. […] The results are averaged and analyzed according to known statistical methods to yield the ATC value for a particular anti-microbial agent in a given solid carrier (e.g. mint lozenge). […]

[3] = tested on: microorganisms found in the oral cavity; experiment: Minimum inhibitory concentration (MIC) of anti-microbial agent; assay type: cell-based
Source text: The germ kill rating (R) of each anti-microbial agent used in the oral composition is the ratio of the maximum acceptable taste concentration (ATC) of the anti-microbial agent and the minimum inhibitory concentration (MIC). The germ kill rating (R) is therefore a value representative of the suitability of a particular anti-microbial agent to provide a balance between acceptable taste and germ killing efficacy. A relatively high (R) value is indicative of an anti-microbial agent that can be used in a relatively large range of concentrations without adversely effecting taste while still obtaining the desired germ kill properties. […] However, thymol has a very low maximum acceptable taste concentration and therefore provides a germ kill rating (R) of 1.1 which is lower than the other four essential oils in Table 2 even though the other essential oils have a higher minimum inhibitory concentration.

Row | Structure (SMILES) | Q factor (100/percentage released) [1] | Release Rate (%) After 10 Minutes of Chewing [1] [%] | Release Rate (%) After 10 Minutes of Chewing ([1]; listed as eucalyptol) [%] | Germ Kill Rating (R) [2] | MIC [3] [µg/mL]
1 | CC12CCC(CC1)C(C)(C)O2 [Eucalyptol] | 5.025 | 19.9 | 19.9 | – | –
2 | CC1CCC(C(C)C)C(O)C1 (centres unmarked) [Menthol] | 11.1 | 9 | – | 24 | 500 (≈ 3200 µM)
3 | CC(C)[C@@H]1CC[C@@H](C)CC1=O [Menthone] | – | 10.4 | – | – | –
4 | COC(=O)c1ccccc1O [Methyl Salicylate] | – | 8.9 | – | – | –
5 | Cc1ccc(C(C)C)c(O)c1 [Thymol] | – | – | – | 1.1 | 87 (≈ 579 µM)
